Measured values reported in the NIST ThermoML archive (doi:10.1021/je900743e).
Numbers after ± are expanded uncertainties.

What was measured:
[1] = Crystal; visual observation
[2] = wn = mass fraction of the nth substance listed; settings: 101 kPa, Liquid; for viscosity: Capillary tube (Ostwald / Ubbelohde) method; for mass density: Pycnometric method

[Br-].[Br-].c1cc[n+](CCCCC[n+]2ccccc2)cc1 [1,1'-(pentane-1,5-diyl)-bis(pyridinium) dibromide]
Settings	Normal melting temperature [°C]
[1]	198.00 ± 2.9

CCO [ethanol] + O
[2]
Settings	mass density, w1 = 0.1 [kg/m3]	mass density, w1 = 0.2 [kg/m3]	mass density, w1 = 0.3 [kg/m3]	mass density, w1 = 0.4 [kg/m3]	mass density, w1 = 0.5 [kg/m3]	viscosity, w1 = 0.1 [mPa·s]	viscosity, w1 = 0.2 [mPa·s]	viscosity, w1 = 0.3 [mPa·s]	viscosity, w1 = 0.4 [mPa·s]	viscosity, w1 = 0.5 [mPa·s]
293.15 K	981.8 ± 0.6	968.2 ± 0.8	953.6 ± 1.1	935.5 ± 1.4	913.9 ± 1.8	1.538 ± 0.034	2.183 ± 0.05	2.701 ± 0.064	2.91 ± 0.071	2.87 ± 0.074
303.15 K	979 ± 0.6	964.1 ± 0.9	947.4 ± 1.1	927.2 ± 1.4	905.6 ± 1.8	1.16 ± 0.026	1.553 ± 0.035	1.87 ± 0.044	2.02 ± 0.05	2.022 ± 0.052
313.15 K	974.6 ± 0.6	958.7 ± 0.9	940.3 ± 1.1	919.8 ± 1.4	897.6 ± 1.7	0.9068 ± 0.02	1.16 ± 0.027	1.368 ± 0.032	1.482 ± 0.037	1.499 ± 0.039
